Type in all cases: functional
The test system of assay [1] is Staphylococcus aureus. Put plainly: Antimicrobial activity against methicillin-resistant Staphylococcus aureus ATCC 33591 by CLSI protocol based broth microdilution method. (In broth dilution the organism is exposed to a series of concentrations in liquid medium.)
In assay [2] the test system is Staphylococcus aureus. Put plainly: Antimicrobial activity against methicillin-sensitive Staphylococcus aureus 8325-4 by CLSI protocol based broth microdilution method.
Assay [3] relates to Enterococcus faecalis. Put plainly: Antimicrobial activity against vancomycin-resistant Enterococcus faecalis ATCC 51575 by CLSI protocol based broth microdilution method.
For assay [4], the system named is Enterococcus faecalis. Kind of assay: Antimicrobial activity against vancomycin-sensitive Enterococcus faecalis ATCC 19433 by CLSI protocol based broth microdilution method.

Each structure is given as a SMILES string. In brackets after ≈: the same amount, converted by molar mass.

As a reminder, the MIC is the least concentration at which growth counts as inhibited. A high value points to a need for much substance. As for `CN(C)[C@@H]1C(O)=C(C(N)=O)C(=O)[C@@]2(O)C(O)=C3C(=O)c4c(O)cccc4[C@@](C)(O)[C@H]3C[C@@H]12` [TETRACYCLINE], the MIC is 64 µg/mL (≈ 144 µM) with Staphylococcus aureus [1], 0.06 µg/mL (≈ 0.135 µM) in the assay with Staphylococcus aureus [2], greater than 64 µg/mL in the assay with Enterococcus faecalis [3] and 0.5 µg/mL (≈ 1.13 µM) in the assay with Enterococcus faecalis [4].
For `COc1cc2ccc3c4ccc(OC)c(OC)c4c[n+](C)c3c2cc1OC.[Cl-]`, the MIC with Staphylococcus aureus [1] was 32 µg/mL; against Staphylococcus aureus [2], 32 µg/mL; against Enterococcus faecalis [3], greater than 64 µg/mL; with Enterococcus faecalis [4], greater than 64 µg/mL.
For the compound `COc1cc2c(ccc3c4ccc(OC)c(OC)c4c[n+](C)c23)c(C2CC2)c1OC.[Cl-]`, the MIC against Staphylococcus aureus [1] was determined as 2 µg/mL; against Staphylococcus aureus [2], 1 µg/mL; against Enterococcus faecalis [3], 8 µg/mL; against Enterococcus faecalis [4], 8 µg/mL.
Consider `COc1cc2c(ccc3c4ccc(OC)c(OC)c4c[n+](C)c23)c(-c2ccc(-c3ccccc3)cc2)c1OC.[Cl-]`, for which the minimum inhibitory concentration (MIC) in the assay with Staphylococcus aureus [1] came out at 0.5 µg/mL; in the assay with Staphylococcus aureus [2], 0.5 µg/mL; in the assay on Enterococcus faecalis [3] it was 8 µg/mL; in the assay on Enterococcus faecalis [4], 4 µg/mL.
Regarding `COc1cc2c(ccc3c4ccc(OC)c(OC)c4c[n+](C)c23)c(C2CCCCC2)c1OC.[Cl-]`, the MIC worked out at 2 µg/mL with Staphylococcus aureus [1], 1 µg/mL against Staphylococcus aureus [2], 8 µg/mL with Enterococcus faecalis [3] and 8 µg/mL in the assay on Enterococcus faecalis [4].
`COc1cc2c(ccc3c4ccc(OC)c(OC)c4c[n+](C)c23)c(-c2cccnc2)c1OC.[Cl-]`: the MIC in the assay on Staphylococcus aureus [1] is 32 µg/mL; in the assay with Staphylococcus aureus [2], 8 µg/mL; in the assay on Enterococcus faecalis [3], 32 µg/mL; in the assay on Enterococcus faecalis [4] it was 32 µg/mL.
As for `COc1cc2c(ccc3c4ccc(OC)c(OC)c4c[n+](C)c23)c(-c2ccccc2)c1OC.[Cl-]`, the minimum inhibitory concentration (MIC) against Staphylococcus aureus [1] was 1 µg/mL; in the assay on Staphylococcus aureus [2], 1 µg/mL; in the assay with Enterococcus faecalis [3] it was 4 µg/mL; against Enterococcus faecalis [4] it was 4 µg/mL.
Take `COc1cc2c(ccc3c4ccc(OC)c(OC)c4c[n+](C)c23)c(C2=CCCCC2)c1OC.[Cl-]`: the MIC with Staphylococcus aureus [1] came out at 4 µg/mL; in the assay on Staphylococcus aureus [2] it was 2 µg/mL; against Enterococcus faecalis [3] it was 32 µg/mL; with Enterococcus faecalis [4], 16 µg/mL.
With `CN[C@H](CC(C)C)C(=O)N[C@H]1C(=O)N[C@@H](CC(N)=O)C(=O)N[C@H]2C(=O)N[C@H]3C(=O)N[C@H](C(=O)N[C@H](C(=O)O)c4cc(O)cc(O)c4-c4cc3ccc4O)[C@H](O)c3ccc(c(Cl)c3)Oc3cc2cc(c3O[C@@H]2O[C@H](CO)[C@@H](O)[C@H](O)[C@H]2O[C@H]2C[C@](C)(N)[C@H](O)[C@H](C)O2)Oc2ccc(cc2Cl)[C@H]1O` [VANCOMYCIN], the minimum inhibitory concentration (MIC) was greater than 64 µg/mL with Enterococcus faecalis [3] and 1 µg/mL (≈ 0.69 µM) in the assay on Enterococcus faecalis [4].
As to `COc1cc(-c2c(OC)c(OC)cc3c2ccc2c4ccc(OC)c(OC)c4c[n+](C)c32)cc(OC)c1OC.[Cl-]`, the MIC against Staphylococcus aureus [1] was determined as 4 µg/mL; in the assay with Staphylococcus aureus [2] it was 4 µg/mL; with Enterococcus faecalis [3], 32 µg/mL; with Enterococcus faecalis [4], 32 µg/mL.
On to `COc1cc2c(ccc3c4ccc(OC)c(OC)c4c[n+](C)c23)c(-c2ccc(N(C)C)cc2)c1OC.[Cl-]`, for which the MIC against Staphylococcus aureus [1] amounted to 1 µg/mL; in the assay with Staphylococcus aureus [2] it was 1 µg/mL; with Enterococcus faecalis [3], 8 µg/mL; in the assay on Enterococcus faecalis [4], 8 µg/mL.
With `COc1cc2ccc3c4ccc5c(c4c[n+](C)c3c2cc1OC)OCO5.[Cl-]`, the MIC is 32 µg/mL with Staphylococcus aureus [1], 32 µg/mL against Staphylococcus aureus [2], greater than 64 µg/mL against Enterococcus faecalis [3] and 64 µg/mL in the assay with Enterococcus faecalis [4].
On to `COc1cc2c(ccc3c4ccc(OC)c(OC)c4c[n+](C)c23)c(-c2ccoc2)c1OC.[Cl-]`, for which the minimal inhibitory concentration (MIC) stood at 1 µg/mL against Staphylococcus aureus [1], 1 µg/mL in the assay with Staphylococcus aureus [2], 16 µg/mL against Enterococcus faecalis [3] and 16 µg/mL in the assay on Enterococcus faecalis [4].
Regarding `CC[C@H]1OC(=O)[C@H](C)[C@@H](O[C@H]2C[C@@](C)(OC)[C@@H](O)[C@H](C)O2)[C@H](C)[C@@H](O[C@@H]2O[C@H](C)C[C@H](N(C)C)[C@H]2O)[C@](C)(O)C[C@@H](C)C(=O)[C@H](C)[C@@H](O)[C@]1(C)O` [ERYTHROMYCIN], the MIC in the assay on Staphylococcus aureus [1] is greater than 64 µg/mL; with Staphylococcus aureus [2], 0.13 µg/mL (≈ 0.177 µM); in the assay with Enterococcus faecalis [3], greater than 64 µg/mL; against Enterococcus faecalis [4], 1 µg/mL (≈ 1.36 µM).
For the compound `C=Cc1c(OC)c(OC)cc2c1ccc1c3ccc(OC)c(OC)c3c[n+](C)c21.[Cl-]`, the MIC in the assay on Staphylococcus aureus [1] was found to be 2 µg/mL; in the assay on Staphylococcus aureus [2] it was 1 µg/mL; in the assay with Enterococcus faecalis [3] it was 8 µg/mL; against Enterococcus faecalis [4], 8 µg/mL.
`COc1cc2c(ccc3c4ccc5c(c4c[n+](C)c23)OCO5)c(-c2ccc(-c3ccccc3)cc2)c1OC.[Cl-]`: the MIC is 2 µg/mL in the assay on Staphylococcus aureus [1], 2 µg/mL against Staphylococcus aureus [2], 8 µg/mL against Enterococcus faecalis [3] and 8 µg/mL in the assay on Enterococcus faecalis [4].
Turning to `COc1cc2c(-c3ccc(-c4ccccc4)cc3)cc3c4ccc5c(c4c[n+](C)c3c2cc1OC)OCO5.[Cl-]`, the MIC in the assay with Staphylococcus aureus [1] came out at 2 µg/mL; against Staphylococcus aureus [2], 2 µg/mL; with Enterococcus faecalis [3], 8 µg/mL; in the assay on Enterococcus faecalis [4] it was 4 µg/mL.
Regarding `Cc1onc(-c2ccccc2)c1C(=O)N[C@@H]1C(=O)N2[C@@H]1SC(C)(C)[C@@H]2C(=O)O` [OXACILLIN], the MIC was greater than 64 µg/mL against Staphylococcus aureus [1], 0.06 µg/mL (≈ 0.149 µM) in the assay with Staphylococcus aureus [2], greater than 64 µg/mL in the assay on Enterococcus faecalis [3] and 8 µg/mL (≈ 19.9 µM) with Enterococcus faecalis [4].
As for `COc1cc2c(-c3ccccc3)cc3c4ccc(OC)c(OC)c4c[n+](C)c3c2cc1OC.[Cl-]`, the minimal inhibitory concentration (MIC) was 2 µg/mL against Staphylococcus aureus [1], 1 µg/mL in the assay with Staphylococcus aureus [2], 16 µg/mL in the assay on Enterococcus faecalis [3] and 8 µg/mL in the assay on Enterococcus faecalis [4].
`COc1cc2c(-c3ccc(-c4ccccc4)cc3)cc3c4ccc(OC)c(OC)c4c[n+](C)c3c2cc1OC.[Cl-]`: the MIC is 0.5 µg/mL in the assay with Staphylococcus aureus [1], 0.5 µg/mL with Staphylococcus aureus [2], 16 µg/mL in the assay with Enterococcus faecalis [3] and 16 µg/mL against Enterococcus faecalis [4].
As to `C[n+]1cc2c3c(ccc2c2ccc4cc5c(cc4c21)OCO5)OCO3.[Cl-]` [SANGUINARIUM CHLORIDE], the minimum inhibitory concentration (MIC) in the assay on Staphylococcus aureus [1] was found to be 2 µg/mL; in the assay on Staphylococcus aureus [2], 2 µg/mL; in the assay on Enterococcus faecalis [3], 16 µg/mL; against Enterococcus faecalis [4], 8 µg/mL.
With `COc1cc2c(ccc3c4ccc5c(c4c[n+](C)c23)OCO5)c(-c2ccccc2)c1OC.[Cl-]`, the MIC against Staphylococcus aureus [1] was 2 µg/mL; against Staphylococcus aureus [2], 1 µg/mL; against Enterococcus faecalis [3] it was 8 µg/mL; against Enterococcus faecalis [4], 8 µg/mL.
On to `CCC[C@@H]1C[C@@H](C(=O)N[C@@H]([C@H]2O[C@H](SC)[C@H](O)[C@@H](O)[C@H]2O)[C@H](C)Cl)N(C)C1` [CLINDAMYCIN], for which the minimal inhibitory concentration (MIC) was greater than 64 µg/mL against Staphylococcus aureus [1], 0.03 µg/mL (≈ 0.0706 µM) against Staphylococcus aureus [2], greater than 64 µg/mL with Enterococcus faecalis [3] and 2 µg/mL (≈ 4.71 µM) against Enterococcus faecalis [4].

The record behind these values is ChEMBL document CHEMBL2203128, “Antibacterial activity of substituted 5-methylbenzo[c]phenanthridinium derivatives” (2012).
